Tests used:
TLK1 = molecular target: T1, TLK1 (Homo sapiens, UniProt Q9UKI8); test: DSF; assay type: binding
T1 construct: purchased in-house DSF panel (SGC Frankfurt)
Method: (§2) Recombinant protein kinase domains with a concentration of 2 μM were mixed with a 10 μM compound solution in DMSO, 20 mM HEPES, pH 7.5, and 500 mM NaCl. SYPRO Orange (5000×, Invitrogen) was added as a fluorescence probe (1 µl per mL). Subsequently, temperature-dependent protein unfolding profiles were measured, using the QuantStudio™ 5 realtime PCR machine (Thermo Fisher, Waltham, MA, USA). […] The temperature was raised with a step rate of 3 °C per minute. Data points were analyzed with the internal software (Thermal Shift SoftwareTM Version 1.4, Thermo Fisher) using the Boltzmann equation to determine the inflection point of the transition curve [56]. Differences in melting temperature are given as ΔTm values in °C. Measurements were performed in duplicates.

NEK7 = molecular target: T2, NEK7 (Homo sapiens, UniProt Q8TDX7); test: DSF; assay type: binding
T2 construct: purchased in-house DSF panel (SGC Frankfurt)
Method: as §2

SPRK1 = molecular target: T3, SPRK1 (Homo sapiens, UniProt Q96SB4); test: DSF; assay type: binding
T3 construct: purchased in-house DSF panel (SGC Frankfurt)
Method: as §2

MAP3K5 = molecular target: T4, MAP3K5 (Homo sapiens, UniProt Q99683); test: DSF; assay type: binding
T4 construct: purchased in-house DSF panel (SGC Frankfurt)
Method: as §2

MAPKAPK2 = molecular target: T5, MAPKAPK2 (Homo sapiens, UniProt P49137); test: DSF; assay type: binding
T5 construct: purchased in-house DSF panel (SGC Frankfurt)
Method: Recombinant protein kinase domains with a concentration of 2 μM were mixed with a 10 μM compound solution in DMSO, 20 mM HEPES, pH 7.5, and 500 mM NaCl. SYPRO Orange (5000×, Invitrogen) was added as a fluorescence probe (1 µl per mL). Subsequently, temperature-dependent protein unfolding profiles were measured, using the QuantStudio™ 5 realtime PCR machine (Thermo Fisher, Waltham, MA, USA). […] The temperature was raised with a step rate of 3 °C per minute. Data points were analyzed with the internal software (Thermal Shift SoftwareTM Version 1.4, Thermo Fisher) using the Boltzmann equation to determine the inflection point of the transition curve. Differences in melting temperature are given as ΔTm values in °C. Measurements were performed in duplicates.

CDK1/Cyclin B1 = molecular target: T6, CDK1/Cyclin B1 (Homo sapiens, UniProt P06493); test: NanoBRET; assay type: cell-based; details: read-out: NanoBRET EC50 ± SEM CDK1/Cyclin B1
T6 construct: Full-length kinases were obtained as plasmids cloned in frame with a terminal NanoLuc-fusion; CS1810C170 (CCNB1); host or cells: HEK293T
How it was run: (§1)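 Cells (HEK293T) are transfected with full-length kinase–NanoLuc plasmids and allowed 20 h expression. Trypsinized cells are added to inhibitor dilutions plus tracer at KD,app and equilibrated 2 h at 37 °C/5% CO2. Luminescence at 450 and 610 nm gives BRET; EC50 from a normalized fit.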

CDK5/CDK5R2 = molecular target: T7, CDK5/CDK5R2 (Homo sapiens, UniProt Q00535); test: NanoBRET; assay type: cell-based; details: read-out: NanoBRET EC50 ± SEM CDK5/CDK5R2
T7 construct: Full-length kinases were obtained as plasmids cloned in frame with a terminal NanoLuc-fusion; CS1810C174 (CDK5R2); host or cells: HEK293T
How it was run: as §1

CDK5/CDK5R1 = molecular target: T8, CDK5/CDK5R1 (Homo sapiens, UniProt Q00535); test: NanoBRET; assay type: cell-based; details: read-out: NanoBRET EC50 ± SEM CDK5/CDK5R1
T8 construct: Full-length kinases were obtained as plasmids cloned in frame with a terminal NanoLuc-fusion; CS1810C173 (CDK5R1); host or cells: HEK293T
How it was run: as §1

[1] = Microsomal stability assay; assay type: in vitro ADME, Sprague-Dawley rats; details: rat liver microsomes, 10 µM, 37 °C, 60 min
Method: The lead structure 1 was not included in this assay due to its promiscuous behaviour. Since 1 is presumably not suitable as a tool compound to study the effect of selective kinase inhibition in an in vivo application, we focused on the newly synthesized compounds 21i and 43d. The compounds were tested against an activated microsome mix derived from the liver of Sprague-Dawley rats, as previously reported. 21i and 43d were incubated at 37 °C for 60 min and the amount of unmetabolized compound was determined in 15 min steps, using high-performance liquid chromatography (HPLC).
The solubilized test compound (5 μL, final concentration 10 µM) was preincubated at 37 °C in 432 μL of phosphate buffer (0.1 M, pH 7.4) together with 50 μL NADPH regenerating system (30 mM glucose 6 phosphate, 4 U/mL glucose 6 phosphate dehydrogenase, 10 mM NADP, 30 mM MgCl2). After 5 min, the reaction was started by the addition of 13 μL of microsome mix from the liver of Sprague−Dawley rats (Invitrogen; 20 mg protein/mL in 0.1 M phosphate buffer) in a shaking water bath at 37 °C. The reaction was stopped by adding 500 μL of ice cold methanol at 0, 15, 30 and 60 min. […] The amounts of the test compound were quantified by an external calibration curve. Data are expressed as the mean ± SEM remaining compound from three independent experiments.

PCTAIRE family = test: NanoBRET; assay type: cell-based; details: read-out: cellular potency, other members of the PCTAIRE family
How it was run: as §1

GSK3B = GSK3B (Homo sapiens, UniProt P49841); test: NanoBRET; assay type: cell-based; parameters: Full-length kinases were obtained as plasmids cloned in frame with a terminal NanoLuc-fusion; host or cells: HEK293T
Method: The assay was performed as described previously. In brief: Full-length kinases were obtained as plasmids cloned in frame with a terminal NanoLuc-fusion (Promega, Madison, WI, USA), as specified in table (Table S6). Plasmids were transfected into HEK293T cells using FuGENE HD (Promega, E2312) and proteins were allowed to express for 20h. Serially diluted inhibitor and NanoBRET Kinase Tracer (Promega) at a concentration determined previously as the KD,app (Table S5) were pipetted into white 384-well plates (Greiner 781207) using an Echo acoustic dispenser (Labcyte, San Jose, CA, USA). The corresponding protein-transfected cells were added and reseeded at a density of 2.5 × 10^5 cells/mL after trypsinization and resuspending in Opti-MEM without phenol red (Life Technologies, Carlsbad, CA, USA). The system was allowed to equilibrate for 2 h at 37 °C/5% CO2 prior to BRET measurements. To measure BRET, NanoBRET NanoGlo Substrate + Extracellular NanoLuc Inhibitor (Promega, N2540) was added as per the manufacturer’s protocol, and filtered luminescence was measured on a PHERAstar plate reader (BMG Labtech, Ortenberg, Germany) equipped with a luminescence filter pair (450 nm BP filter (donor) and 610 nm LP filter (acceptor)). […]

JNK3 = molecular target: T9, JNK3 (Homo sapiens, UniProt P53779); parameters: method as in PMID 19053485; details: cited from earlier work
T9 construct: Recombinant protein kinase domains with a concentration of 2 μM were mixed; made in house

359 wild-type kinases = system: 359 wild-type kinases; parameters: method as in PMID 19053485; details: kinome-wide screen; cited from earlier work
CDK5 = details: cited from earlier work
CDK2 = molecular target: T10, CDK2 (Homo sapiens, UniProt P24941); details: cited from earlier work
T10 construct: purchased in-house DSF panel (SGC Frankfurt)

T4 sequence (Q99683 659-951): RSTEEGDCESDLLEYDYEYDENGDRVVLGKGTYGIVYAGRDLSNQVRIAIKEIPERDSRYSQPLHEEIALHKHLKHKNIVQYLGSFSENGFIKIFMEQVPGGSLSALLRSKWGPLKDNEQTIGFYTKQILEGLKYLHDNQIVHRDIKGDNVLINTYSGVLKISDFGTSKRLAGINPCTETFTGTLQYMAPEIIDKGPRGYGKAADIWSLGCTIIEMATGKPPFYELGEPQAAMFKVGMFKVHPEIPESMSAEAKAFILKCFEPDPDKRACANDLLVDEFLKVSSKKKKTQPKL
T3 sequence (Q96SB4 whole entry): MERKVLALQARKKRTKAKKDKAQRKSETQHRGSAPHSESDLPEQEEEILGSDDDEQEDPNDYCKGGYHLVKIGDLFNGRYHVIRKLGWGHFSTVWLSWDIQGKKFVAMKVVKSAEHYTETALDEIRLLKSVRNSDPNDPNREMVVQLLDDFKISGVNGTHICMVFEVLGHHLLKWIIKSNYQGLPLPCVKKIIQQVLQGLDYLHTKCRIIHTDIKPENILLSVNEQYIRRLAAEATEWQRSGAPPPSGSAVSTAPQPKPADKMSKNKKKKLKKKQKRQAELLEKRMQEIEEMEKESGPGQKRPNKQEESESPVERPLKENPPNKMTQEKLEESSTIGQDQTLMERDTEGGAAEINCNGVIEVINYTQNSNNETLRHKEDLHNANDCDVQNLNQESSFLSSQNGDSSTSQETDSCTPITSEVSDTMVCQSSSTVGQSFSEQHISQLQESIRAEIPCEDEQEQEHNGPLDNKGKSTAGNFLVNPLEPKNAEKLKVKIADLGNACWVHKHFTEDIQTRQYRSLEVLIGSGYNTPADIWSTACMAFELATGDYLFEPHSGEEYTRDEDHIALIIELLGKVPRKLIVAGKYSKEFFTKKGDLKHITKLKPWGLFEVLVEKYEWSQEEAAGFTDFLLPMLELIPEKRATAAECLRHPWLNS
T2 sequence (Q8TDX7 whole entry): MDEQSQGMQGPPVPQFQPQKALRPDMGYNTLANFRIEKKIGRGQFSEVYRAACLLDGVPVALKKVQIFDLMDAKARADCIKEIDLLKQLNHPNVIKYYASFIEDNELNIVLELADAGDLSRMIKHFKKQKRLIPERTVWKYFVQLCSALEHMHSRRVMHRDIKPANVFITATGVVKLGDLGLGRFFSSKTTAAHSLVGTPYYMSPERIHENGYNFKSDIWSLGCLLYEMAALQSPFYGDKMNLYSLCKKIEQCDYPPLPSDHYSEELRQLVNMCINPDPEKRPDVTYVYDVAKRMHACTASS
T6 sequence (P06493 whole entry, the tested form may be a part): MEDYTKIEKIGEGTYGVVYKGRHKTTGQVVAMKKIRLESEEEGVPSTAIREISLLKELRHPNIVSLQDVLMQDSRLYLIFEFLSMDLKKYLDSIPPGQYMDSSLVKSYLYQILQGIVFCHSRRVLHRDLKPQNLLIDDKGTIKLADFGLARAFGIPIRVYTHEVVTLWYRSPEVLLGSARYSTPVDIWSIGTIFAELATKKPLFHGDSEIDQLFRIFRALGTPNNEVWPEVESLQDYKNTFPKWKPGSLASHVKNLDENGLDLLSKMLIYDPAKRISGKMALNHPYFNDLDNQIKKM
T6 sequence (P14635 whole entry partner, the tested form may be a part): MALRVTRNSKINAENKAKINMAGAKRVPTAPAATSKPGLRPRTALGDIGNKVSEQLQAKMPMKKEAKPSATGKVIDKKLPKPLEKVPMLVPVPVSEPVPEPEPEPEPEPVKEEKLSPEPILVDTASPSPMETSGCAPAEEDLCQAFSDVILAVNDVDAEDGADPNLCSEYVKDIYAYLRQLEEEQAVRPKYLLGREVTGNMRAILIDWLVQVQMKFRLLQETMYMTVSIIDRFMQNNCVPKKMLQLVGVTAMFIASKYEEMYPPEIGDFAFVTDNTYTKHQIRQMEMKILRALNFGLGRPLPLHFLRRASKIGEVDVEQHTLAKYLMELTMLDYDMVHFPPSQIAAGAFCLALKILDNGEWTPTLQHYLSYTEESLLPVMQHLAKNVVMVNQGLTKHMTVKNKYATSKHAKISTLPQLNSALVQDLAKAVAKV
T7 sequence (Q00535 whole entry, the tested form may be a part): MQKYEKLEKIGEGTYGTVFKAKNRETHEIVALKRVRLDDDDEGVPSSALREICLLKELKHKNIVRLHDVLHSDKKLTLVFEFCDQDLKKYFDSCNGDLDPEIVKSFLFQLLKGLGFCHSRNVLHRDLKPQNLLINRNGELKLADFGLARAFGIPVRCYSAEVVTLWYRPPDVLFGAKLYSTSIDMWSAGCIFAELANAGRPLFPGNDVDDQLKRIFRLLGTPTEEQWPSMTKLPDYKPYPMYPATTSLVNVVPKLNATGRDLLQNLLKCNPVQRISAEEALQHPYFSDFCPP
T7 sequence (Q13319 whole entry partner, the tested form may be a part): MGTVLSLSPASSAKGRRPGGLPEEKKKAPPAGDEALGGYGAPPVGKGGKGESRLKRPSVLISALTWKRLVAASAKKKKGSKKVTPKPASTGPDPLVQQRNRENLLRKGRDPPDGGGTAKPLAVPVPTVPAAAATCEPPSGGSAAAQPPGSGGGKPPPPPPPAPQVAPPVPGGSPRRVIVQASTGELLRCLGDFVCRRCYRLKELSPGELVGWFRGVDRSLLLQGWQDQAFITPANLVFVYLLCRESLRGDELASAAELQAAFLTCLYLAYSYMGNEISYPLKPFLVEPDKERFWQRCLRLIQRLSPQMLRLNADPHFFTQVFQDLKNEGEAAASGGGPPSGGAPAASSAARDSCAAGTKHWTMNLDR
T8 sequence (Q00535 whole entry, the tested form may be a part): as the sequence (Q00535 whole entry, the tested form may be a part) above
T8 sequence (Q15078 whole entry partner, the tested form may be a part): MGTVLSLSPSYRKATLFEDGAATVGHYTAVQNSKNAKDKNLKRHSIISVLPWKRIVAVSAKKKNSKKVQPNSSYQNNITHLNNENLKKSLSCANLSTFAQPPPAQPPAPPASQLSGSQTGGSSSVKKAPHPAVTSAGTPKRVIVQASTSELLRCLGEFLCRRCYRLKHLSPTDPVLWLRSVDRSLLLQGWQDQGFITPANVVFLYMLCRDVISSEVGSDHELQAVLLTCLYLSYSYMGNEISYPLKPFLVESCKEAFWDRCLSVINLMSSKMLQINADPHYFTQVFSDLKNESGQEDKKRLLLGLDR
T5 sequence (P49137 64-325): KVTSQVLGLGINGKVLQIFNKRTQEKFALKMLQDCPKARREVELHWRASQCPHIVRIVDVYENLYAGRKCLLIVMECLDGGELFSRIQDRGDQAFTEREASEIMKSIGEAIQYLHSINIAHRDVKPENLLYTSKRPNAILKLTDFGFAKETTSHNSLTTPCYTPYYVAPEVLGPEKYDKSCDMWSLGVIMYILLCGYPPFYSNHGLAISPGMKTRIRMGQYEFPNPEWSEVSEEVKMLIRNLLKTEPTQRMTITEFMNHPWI
T1 sequence (Q9UKI8 456-734): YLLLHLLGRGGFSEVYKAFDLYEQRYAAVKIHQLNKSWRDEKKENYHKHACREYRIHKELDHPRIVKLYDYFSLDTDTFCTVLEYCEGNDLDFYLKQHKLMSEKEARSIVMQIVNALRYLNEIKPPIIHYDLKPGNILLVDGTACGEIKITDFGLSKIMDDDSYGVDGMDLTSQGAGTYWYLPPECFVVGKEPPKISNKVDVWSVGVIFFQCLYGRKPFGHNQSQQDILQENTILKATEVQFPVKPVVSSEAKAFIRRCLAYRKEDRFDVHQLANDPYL
Sequence of GSK3B (P49841 whole entry, the tested form may be a part): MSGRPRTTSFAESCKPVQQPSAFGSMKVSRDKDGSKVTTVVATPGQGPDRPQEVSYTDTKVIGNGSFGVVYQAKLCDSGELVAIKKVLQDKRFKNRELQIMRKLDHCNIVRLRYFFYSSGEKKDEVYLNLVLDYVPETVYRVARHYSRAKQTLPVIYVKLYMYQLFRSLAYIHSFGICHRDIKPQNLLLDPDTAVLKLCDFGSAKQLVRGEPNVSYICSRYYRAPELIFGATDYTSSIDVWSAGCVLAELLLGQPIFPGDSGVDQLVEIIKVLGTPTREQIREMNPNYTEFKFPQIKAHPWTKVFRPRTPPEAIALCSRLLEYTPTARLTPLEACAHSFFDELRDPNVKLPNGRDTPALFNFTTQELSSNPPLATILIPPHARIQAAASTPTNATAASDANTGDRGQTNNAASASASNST
T9 sequence (P53779 64-359 limits assumed): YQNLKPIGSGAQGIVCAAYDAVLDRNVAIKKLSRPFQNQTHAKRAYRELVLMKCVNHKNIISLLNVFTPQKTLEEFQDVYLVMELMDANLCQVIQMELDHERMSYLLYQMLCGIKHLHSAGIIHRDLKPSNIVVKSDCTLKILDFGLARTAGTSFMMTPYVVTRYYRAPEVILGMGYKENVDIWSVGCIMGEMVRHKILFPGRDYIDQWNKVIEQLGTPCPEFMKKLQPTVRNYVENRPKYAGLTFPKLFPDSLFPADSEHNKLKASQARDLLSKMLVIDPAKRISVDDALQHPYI

Structure (SMILES) | ΔTm TLK1 (TLK1) | ΔTm NEK7 (NEK7) | ΔTm SPRK1 (SPRK1) | ΔTm MAP3K5 (MAP3K5) | ΔTm MAPKAPK2 (MAPKAPK2) | EC50 (CDK1/Cyclin B1) | EC50 (CDK5/CDK5R2) | EC50 (CDK5/CDK5R1) | unmetabolized compound detected [1] | EC50 (PCTAIRE family) | NanoBRET EC50 GSK3B (GSK3B) | Kd (JNK3) | number of kinases targeted of 359 wild-type kinases (359 wild-type kinases) | Kd (CDK5) | Kd (CDK2)
CC(C)OC(=O)c1cc(Nc2ccnc(NCc3ccc(NC(=O)OC(C)(C)C)cc3)n2)n[nH]1 [42d, isopropyl 3-((2-((4-((tert-butoxycarbonyl)amino)benzyl)amino)pyrimidin-4-yl)amino)-1H-pyrazole-5-carboxylate] | -1.2 °C | -1.7 °C | -0.2 °C | 0.1 °C | -0.3 °C | – | – | – | – | – | – | – | – | – | –
COC(=O)c1cc(Nc2ccnc(NCc3ccc(NC(=O)OC(C)(C)C)cc3)n2)[nH]n1 [21i, methyl 5-((2-((4-((tert-butoxycarbonyl)amino)benzyl)amino)pyrimidin-4-yl)amino)-1H-pyrazole-3-carboxylate] | – | – | – | – | – | 9300 ± 5790 nM | 38600 ± 5850 nM | 28600 ± 4650 nM | 16% | – | – | – | – | – | –
CC(C)(C)OC(=O)Nc1ccc(CNc2nccc(Nc3cc(C(=O)OC(C)(C)C)[nH]n3)n2)cc1 [43d, tert-butyl 3-((2-((4-((tert-butoxycarbonyl)amino)benzyl)amino)pyrimidin-4-yl)amino)-1H-pyrazole-5-carboxylate] | -1.4 °C | -1.0 °C | 0.4 °C | 0.1 °C | 0.2 °C | – | – | – | 79% | 20 to 120 nM | negligible | – | – | – | –
N#CCc1ccc(Nc2nccc(Nc3cc(C4CC4)[nH]n3)n2)cc1 [compound 1, reference compound] | – | – | – | – | – | 63.1 ± 10.4 nM | 11.9 ± 2.8 nM | 30.3 ± 10.3 nM | – | – | – | 26.1 nM | 337 | 27.6 nM | 4.6 nM

Reference: PMC9736855, “Discovery of 3-Amino-1H-pyrazole-Based Kinase Inhibitors to Illuminate the Understudied PCTAIRE Family” (International Journal of Molecular Sciences, 2022)
